Literature values as cited in PMC5156321 (Natural product communications, 2014).
Where two headings read alike, the source gives them in different places.

How the values were obtained:
[1] = test system: matrix metalloproteinase-3 (MMP-3); settings: for IC50: read-out: MMP-3 IC50
[2] = test system: caspase-1; settings: for Caspase-1 IC100: tested at 100 μg/mL and 10 μg/mL; for caspase-1 % inhibition: test concentration 100 μg,mL; for IC50: read-out: Caspase-1 IC50
[3] = test system: IL-1β production in induced THP-1 cells; settings: for inhibition of cytokine production in induced inflammasome assay: at the nm level, Figure 11; for IC50: read-out: IL-1β production (IC50), LPS and multi-walled carbon nanotubes-induced THP-1 cells
[4] = test system: leukemia RPMI-8226; settings: NCI-DTP 60
[5] = test system: leukemia SR; settings: NCI-DTP 60
[6] = test system: non-small cell lung cancer NCI-H522; settings: NCI-DTP 60
[7] = test system: non-small cell lung cancer NCI-H460; settings: NCI-DTP 60
[8] = test system: OVCAR-3
[9] = test system: leukemia HL-60; settings: NCI-DTP 60
[10] = test system: leukemia CCRFCEM; settings: NCI-DTP 60
[11] = test system: all leukemia cell lines; settings: NCI-DTP 60
[12] = test system: HeLaS3; settings: read-out: IC50 (μM) Alamar Blue Viability HeLaS3; tested at MSKCC
[13] = test system: UMUC3; settings: read-out: IC50 (μM) Nuclei Count Proliferation UMUC3; tested at MSKCC
[14] = test system: HeLaS3; settings: read-out: IC50 (μM) Nuclei Count Proliferation HeLaS3; tested at MSKCC
[15] = test system: UMUC3; settings: read-out: IC50 (μM) Alamar Blue Viability UMUC3; tested at MSKCC
[16] = test system: Y79; settings: read-out: IC50 (μM) Nuclei Count Proliferation Y79; tested at MSKCC
[17] = test system: H3255; settings: read-out: IC50 (μM) Nuclei Count Proliferation H3255; tested at MSKCC
[18] = test concentrations 100 μg/mL and 10 μg/mL

## COC(=O)[C@]12C(=O)[C@H](C)O[C@@H]3OC(=O)[C@](C)(C[C@H]4[C@]5(CO5)C5=CC(=O)OC(C)(C)C5=CC[C@@]41C)[C@@H]32 [B (18), berkeleyacetal B]
[1]
  MMP-3 inhibition, concentration range: mM range
[2]
  caspase-1 inhibition, concentration range: mM range

## CC(=O)N[C@H](C(=O)O[C@H]1CCC(C)(C)[C@@H]2CC=C3C(=O)OC[C@]3(O)[C@@]12C)C(C)C [B (32), Berkedrimane B]
[2]
  caspase-1 IC50: 50 µg/mL
[3]
  inhibition of cytokine production in induced inflammasome assay: completely inhibited

## C/C=C/C1=CC2=CC(=O)[C@@H](C)[C@H](O)[C@H]2CO1 [Berkazaphilone A (25), Berkazaphilone A]
[2]
  Caspase-1 IC100: Caspase-1: 100 μg/mL

## C/C=C/C1=CC2=CC(=O)[C@](C)(OC(=O)c3c(C)cc(O)cc3O)[C@H](O)[C@H]2CO1 [Berkazaphilone B (26), berkazaphilone B]
[2]
  Caspase-1 IC100: Caspase-1: 10 μg/mL
[4]
  leukemia RPMI-8226 log10 GI50: leukemia RPMI-8226: log10 GI50 (−5.67)
[3]
  concentration completely inhibitory to IL-1β production in THP-1 cells: 2.0 µg/mL

## C/C=C/C1=CC2=CC(=O)[C@](C)(O)[C@H](OC(=O)c3c(C)cc(O)cc3O)[C@H]2CO1 [Berkazaphilone C (27), berkazaphilone C]
[2]
  Caspase-1 IC100: Caspase-1: 10 μg/mL
[5]
  leukemia SR log10 GI50: leukemia SR: log10 GI50 (−6.42)
[3]
  concentration completely inhibitory to IL-1β production in THP-1 cells: 20 µg/mL
  inhibition of cytokine production in induced inflammasome assay: completely inhibited

## CC(C)C[C@H]1C[C@H]([C@@H](O)CC(=O)Cc2ccccc2)C(=O)N1 [Berkeleyamide A (21), Berkeleyamide A]
[6]
  NCI-H522 log10 GI100: log10 GI100: 10 μM;

## C=C1[C@@]2(C)C[C@H]3C(C)=C4CC(=O)OC(C)(C)C4=CC[C@]3(C)[C@]1(C(=O)OC)C(=O)[C@@](C)(O)C2=O [Berkeleydione (8), berkeleydione]
[1]
  IC50: 22 µM
[2]
  caspase-1 % inhibition: 89%
[7]
  NCI-H460 log10 GI50: NCI-H460: log10 GI50 −6.40.
  activity towards NCI-H460: selective activity
[3]
  IC50: 4.4 µM

## C=C1[C@@]2(C)C[C@H]3[C@]4(C)CC[C@@H](O)C(C)(C)[C@H]4CC[C@]3(C)[C@]1(C(=O)OC)C(=O)[C@@](C)(O)C2=O [Berkeleyone A (12), Berkeleyone A]
[2]
  caspase-1 % inhibition: 68%
[3]
  IC50: 2.7 µM

## C=C1[C@@]2(C)C[C@@H]3[C@](C)(CC=C4C(C)(C)OC(=O)CC[C@]43C)[C@]1(C(=O)OC)C(=O)[C@@](C)(O)C2=O [Berkeleyone B (13), Berkeleyone B]
[2]
  caspase-1 % inhibition: 100%
[3]
  IC50: 3.7 µM

## C=C(C)C1=CC[C@@]2(C)[C@@H](C[C@]3(C)C(=C)[C@@]2(C(=O)OC)C(=O)[C@@](C)(O)C3=O)[C@]1(C)CCC(=O)O [Berkeleyone C (14), Berkeleyone C]
[2]
  caspase-1 % inhibition: 0%
[3]
  IC50: 37.8 µM

## C=C1[C@@]2(C)C[C@H]3[C@@]4(C)C(=CC[C@]3(C)[C@]1(C(=O)OC)C(=O)[C@@](C)(O)C2=O)C(C)(C)C(=O)C[C@H]4O [Berkeleytrione (9), berkeleytrione]
[1]
  IC50: 180 µM

## CCCCC[C@@H]1Cc2cc(O)c(C(=O)O)c3c2[C@H](C[C@]2(OC[C@H](CC(=O)C(C)(CC)C(=O)OC)[C@H]2C)O3)O1 (stereo partly drawn) [Berkelic acid (1), berkelic acid]
[1]
  IC50: 1.87 µM
[2]
  IC50: 98 µM
[8]
  activity in the NCI-DTP60 against OVCAR-3: active
[8]; read-out: GI50 NCI-DTP: OVCAR-3, NCI-DTP 60
  GI50: 0.091 µM

## COc1cc(OC)c2c(c1)C(=O)O[C@H]2c1coc(C)cc1=O [Penisimplicissimum (30), penisimplicissin]
[2]
  Caspase-1 IC100: Caspase-1: 100 μg/mL
[9]
  leukemia HL-60 log10 GI50: leukemia HL-60: log10 GI50 (−5.83)
[10]
  leukemia CCRFCEM log10 GI50: leukemia CCRFCEM: log10 GI50 (−6.70)

## C=C1[C@@]2(C)C[C@H]3[C@]4(C)CCC(=O)OC(C)(C)[C@@H]4CC[C@]3(C)[C@]1(C(=O)OC)C(=O)[C@@](C)(O)C2=O [Preaustinoid A1(11), Preaustinoid A1]
[2]
  caspase-1 % inhibition: 77%
[3]
  IC50: 34.3 µM

## C=C1[C@@]2(C)C[C@H]3[C@]4(C)CCC(=O)C(C)(C)[C@H]4CC[C@]3(C)[C@]1(C(=O)OC)C(=O)[C@@](C)(O)C2=O [Preaustinoid A (10), preaustinoid A]
[2]
  caspase-1 inhibition: inhibited caspase-1 activity
  caspase-1 % inhibition: 97%
[3]
  IC50: 15.5 µM

## C/C=C/c1cc(=O)c([C@@H]2OC(=O)c3cc(OC)cc(OC)c32)co1 [Vermistatin (28), vermistatin]
[2]; [18]
  caspase-1 inhibition: not inhibitory

## C[C@@H]1O[C@@H]2OC(=O)[C@]3(C)C[C@@H]4[C@](C)(C(=O)C=C5C(=CC(=O)OC5(C)C)[C@@]45CO5)[C@H](C1=O)[C@H]23 [berkeleyacetal C (19), berkeleyacetal C]
[1]
  MMP-3 inhibition, concentration range: micromolar range
[2]
  caspase-1 inhibition, concentration range: micromolar range
[11]
  growth inhibition of all leukemia cell lines: inhibited the growth
[7]
  growth inhibition of NCI H460: inhibited the growth

## COC(=O)[C@]12C(=O)[C@H](C)O[C@@H]3OC(=O)[C@](C)(C[C@H]4C(C)=C5CC(=O)OC(C)(C)C5=CC[C@@]41C)[C@@H]32 [berkeleyacetals A (17), berkeleyacetal A]
[1]
  MMP-3 inhibition, concentration range: mM range
[2]
  caspase-1 inhibition, concentration range: mM range

## C/C=C(\C)C(=O)O[C@H]1C=CC(=O)O[C@H]1/C=C\C(=O)C(C)O (stereo partly drawn) [compound 33, Phomopsolide A]
[12]
  IC50: 6.3 µM
[13]
  IC50: 4.8 µM
[1]
  IC50: 100 µM
[14]
  IC50: 5 µM
[15]
  IC50: 6.5 µM

## C/C=C(\C)C(=O)O[C@H]1C=CC(=O)O[C@H]1/C=C/[C@H](O)[C@H](C)O [compound 34, Phomopsolide B]
[13]
  IC50: 6.1 µM

## C/C=C(\C)C(=O)O[C@H]1C=CC(=O)O[C@H]1/C=C/C(=O)[C@H](C)O [compound 35, Phomopsolide C]
[12]
  IC50: 3.6 µM
[13]
  IC50: 1.4 µM
[16]
  IC50: 1.4 µM
[14]
  IC50: 2.7 µM
[17]
  IC50: 2.6 µM
[15]
  IC50: 2.2 µM

## C/C=C(\C)C(=O)O[C@H]1C=CC(=O)O[C@H]1CCC(=O)[C@H](C)O [compound 36, Phomopsolide E]
[13]
  IC50: 6.6 µM
[14]
  IC50: 7.3 µM

## CCCCCCCCCC(=O)[C@@]12O[C@@]13C1=COC(C[C@H](C)O)=CC1=CC(=O)[C@]3(C)OC2=O [compound 45, berkchaetoazaphilone B]
[2]
  caspase-1 inhibition: strongest caspase-1 inhibitor

## CCCc1cc(=O)c([C@@H]2OC(=O)c3cc(OC)cc(OC)c32)co1 [dihydrovermistatin (29), dihydrovermistatin]
[2]; [18]
  caspase-1 inhibition: not inhibitory

## Berkebisabolane A [Berkebisabolane A (4)]
[1]
  IC50: 0.28 µM
[2]
  IC50: 23 µM

## Berkebisabolane B [Berkebisabolane B (5)]
[1]
  IC50: 0.315 µM
[2]
  IC50: 23 µM

## Berkebisabolane C [Berkebisabolane C (6)]
[1]
  IC50: 0.34 µM
[2]
  IC50: 23 µM

## Berkedrimane A [Berkedrimane A (31)]
[2]
  caspase-1 IC50: 60 µg/mL
[3]
  inhibition of cytokine production in induced inflammasome assay: completely inhibited

## phompyrone [compound 38]
[1]
  IC50: > 100 µM
